Reference: article PMC9371699, “Cell-penetrating peptides enhance peptide vaccine accumulation and persistence in lymph nodes to drive immunogenicity” (Proceedings of the National Academy of Sciences of the …, 2022)
Ends that are not written are not given here.

Key:
[1] = T cell activation-based serum stability assay; assay type: in vitro ADME; conditions: 30 µM peptide in RPMI-1640 + 10% fresh mouse serum, 24 h, 37 °C, vs fresh peptide; titrated on splenocytes, CD69 read-out by flow cytometry
Method: Peptides are also highly susceptible to proteolytic cleavage, resulting in a short half-life in vivo ([65], [66]). […] To test if the association of antigen-CPPs with serum components impacts peptide antigen stability, we used an in vitro antigen-presentation assay to functionally determine if T cells could still be activated by antigen-CPPs after incubation with serum proteases ([22]). Free gp100 peptide or gp100-CPP peptides were incubated for 24 h in 10% mouse serum, then added to splenocytes at titrated doses for 1 h to allow antigen uptake and processing, followed by culture with pmel-1 (gp100–specific) T cells for 24 h and assessment of pmel-1 CD69 expression (Fig. 6A and SI Appendix, Fig. S13). From these cocultures, we determined the peptide antigen concentration required for 50% of maximal CD69 up-regulation by the pmel-1 T cells (EC50) (Fig. 6B) and the change in EC50 for peptides preincubated with serum (ΔEC50) (Fig. 6C). […] In contrast, the ΔEC50 for gp100-CPPs ranged from 0.76 to 3.4 (Fig. 6C).
Following prime and boost of mice with gp100 peptides, CD8^+ T cell responses were confirmed on day −1. […] CD69^+/CD8^+ T cell responses were measured by flow cytometry.
Figure S13. […] Shown are plots of pmel activation, measured via CD69 upregulation, against the concentration of the fresh or serum -treated construct. […]

proteinase K = proteinase K (Parengyodontium album, UniProt P06873); experiment: Proteolysis LC-MS assay; assay type: in vitro ADME; conditions: 5 µM peptide in PBS, 0.5 ng proteinase K, 37 °C, 2 hours, time points 0, 30, 60, 120 min, LC-MS (Q-TOF), no other serum components
Text: To gain more direct evidence of altered peptide stability, we used quadrupole time-of-flight liquid chromatography/MS (LC-QTOF-MS), to directly detect proteolytic degradation of pAntp and MPG conjugates in serum. […] We hypothesized that enhanced stability of the conjugates could reflect an intrinsic protective peptidase-/protease-blocking effect by the CPP or be an indirect effect mediated by binding of the conjugate to other serum proteins that sterically interfere with protease attack on the peptide. To distinguish these possibilities, we performed a similar experiment assessing proteolytic stability in the presence of purified proteinase K—a promiscuous protease that cleaves peptide bonds following hydrophobic amino acids—in the absence of other serum components.
C18 column (2 μm particle size, 15 cm × 50 μm ID; Thermo Fisher Scientific). Mobile phase A was 0.1% formic acid in ultrapure water (v/v) and mobile phase B was 80% acetonitrile, 0.1% formic acid in ultrapure water (v/v). The nano-LC method was as follows: 1% B ramping in a linear manner to 41% B in A over 120 minutes, flow rate: 300 nL/min. Data were processed using PEAKS proteomics software.
Serum stability LC-MS assay. […]
Proteolysis LC-MS Assay. […] They were then resuspended 50:50 water:acetonitrile with 0.1% trifluoroacetic acid and reaction analyzed on an Agilent 6550 iFunnel Q -TOF MS. […]

proteinase K, sequence (P06873 106-384, species assumed): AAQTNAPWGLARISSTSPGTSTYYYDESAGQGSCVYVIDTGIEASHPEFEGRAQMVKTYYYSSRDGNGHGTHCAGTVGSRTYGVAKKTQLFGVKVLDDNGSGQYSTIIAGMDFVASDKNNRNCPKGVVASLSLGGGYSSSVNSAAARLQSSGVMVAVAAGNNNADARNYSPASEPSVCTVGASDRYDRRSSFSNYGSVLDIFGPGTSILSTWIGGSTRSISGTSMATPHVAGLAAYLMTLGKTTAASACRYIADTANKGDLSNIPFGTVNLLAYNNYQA

## AVGALEGPRNQDWLGVPRQL-NH2 [gp100]
[1]
  increase in EC50 (CD69 up-regulation) after incubation in serum: ~16 fold
Proteinase K
  proteolytic stability with purified proteinase K: rapid degradation
